Measured values from patent US6680025B2, “Device and method for photoactivation” (Cerus Corporation, priority 1989, dated 2004).

Key:
[1] = system: 500-mer (lambda plasmid, primers PCR 01/02); experiment: Sterilization sensitivity, 500-mer PCR product; assay type: biochemical; details: CE-III 15 minutes, 30 cycles
From the text: (§1) As discussed generally for sterilization, it is expected that the sensitivity of sterilization will depend upon both the modification density and the length of the PCR target sequences. In this experiment, the effect of modification density and target length on sterilization sensitivity were examined by sterilizing two different length PCR products with either AMIP or AMDMIP. Each isopsoralen was used at two different concentrations for the sterilization procedure to produce differing modification densities on PCR targets.
(§2) The two PCR targets used in these experiments were a 115-mer (SK-38/SK-39 HIV system) and a 500-mer. The 500-mer target is obtained from a PCR amplification of a lambda plasmid with primers PCR 01/02. This system is provided by Cetus/Perkin Elmer as a control in their commercial kits of PCR reagents (Catalogue No. N801-0055). For both of these systems equivalent copy numbers of each target were prepared in the following manner: An initial 30 cycle PCR reaction was carried out for each system with the appropriate primers and targets. Aliquots (approximately 10^5-10^6 target copies) of each of these reactions were transferred to a second set of PCR reactions. These second sets of PCR amplifications were carried out in the presence of α-32P-dCTP, again for 30 cycles. Aliquots of these reactions were removed and counted by liquid scintillation counting. With these numbers, the specific activity of the α-32P-dCTP, and the sequence of each of the PCR product oligonucleotides (115-mer and 500-mer), the concentrations of each of the two PCR product oligonucleotides in the second set of PCR reaction tubes was determined. Both the 115-mer and the 500-mer concentrations were then adjusted to exactly 1×10^−8M by the addition of additional Taq buffer. These stocks of equivalent copy number of PCR products were then used for further investigation. Each of the stock solutions then was subdivided into four reaction tubes. The reaction tubes were adjusted to contain the following: Tube 1, 100 μg/ml AMIP; Tube 2, 400 μg/ml AMIP; Tube 3, 100 μ/ml AMDMIP: and Tube 4, 400 μg/ml AMDMIP. Each of these samples were again split into two portions, one part being irradiated for 15 minutes at room temperature with the CE-III device and the other part kept in the dark. Serial dilutions of the irradiated and the unirradiated targets were then carried out on these samples for 30 cycles in the presence of α-32P-CTP. Aliquots of these samples were analyzed on denaturing polyacrylamide gels. The PCR product bands were visualized by autoradiography, cut, and counted in a liquid scintillation counter.

Klenow Polmerase = experiment: Primer extension on monoadducted 71-mer, Klenow polymerase; assay type: biochemical; details: 37° C., 0, 5 or 15 minutes
calf thymus DNA = experiment: Equilibrium dialysis dark binding (association constant); details: for Ka: 4° C., five days, dark, isopsoralen:DNA base pair 1:15
Experimental: Equilibrium Dialysis was used to determine the association (“dark binding”) constants of AMIP, AMDMIP and MIP with calf thymus DNA. The tritium labelled isopsoralens were used for the experiment. The method was a modification of that of Isaacs et al. Biochemistry 16, 1058-1066 (1977).
Spectrapor 2 dialysis tubing (Spectrum) was pre-treated by boiling in saturated sodium bicarbonate then rinsed thoroughly with double distilled water. Calf thymus DNA (Sigma) was prepared at a concentration of 50 μg/ml in 1×TE. The samples were prepared by placing 1.0 ml of the DNA solution inside the bag and using enough isopsoralen to provide an isopsoralen:DNA base pair ratio of 1:15. The samples were prepared with the tritiated isopsoralen (“Drug”) placed either inside or outside of the dialysis bag (each sample was placed in a scintillation vial containing a small magnetic stir bar). The samples were stirred at 4° C. for five days in the dark. After this period the bags were removed, opened, and the radioactivity inside and outside the bag determined by scintillation counting. The concentration of the DNA was determined by measuring optical density at 260 nm. The […] constant (Ka) was calculated from this information (Table 9). Preparing the samples in duplicate with the isopsoralen both inside and outside the dialysis bag provided a check that the system had come to equilibrium at the end of the dialysis period (the amount of isopsoralen inside and outside the bag at equilibrium should be, and was, the same in both cases).
The association constant, Ka is defined here as [formula]
for the reaction P+DNA P:DNA where P=free drug in solution, DNA=DNA binding site for the drug, and P:DNA=drug associated with the DNA. The following summarizes the Ka values determined for the compounds: […]

E. coli DNA Polymerase = experiment: Primer extension on monoadducted 71-mer, E. coli DNA polymerase; assay type: biochemical; details: 37° C., 0, 5 or 15 minutes
[2] = system: 115-mer (SK-38/SK-39 HIV system); experiment: Sterilization sensitivity, 115-mer PCR product; assay type: biochemical; details: CE-III 15 minutes, 30 cycles
From the text: as §1, §2

HIV 115-mer = experiment: Post-amplification sterilization, isopsoralen present during amplification (Example 55); assay type: biochemical; details: AMDMIP 400 μg/ml, 30 cycles
From the text: For the purposes of this determination, the steps of the following experiment include (see FIG. 42): a) preparing template, b) providing template, c) providing isopsoralen, d) providing PCR reagents, e) providing polymerase, f) mixing isopsoralen, PCR reagents, template, and polymerase to initiate PCR, g) cycling to provide PCR product, h) irradiating, i) carrying over of PCR product into new tubes at specific copy numbers, and j) amplifying in a subsequent PCR.
Step a): Template Preparation. HIV 115-mer was used as template.
Step b) Providing Template. For the reaction, template (equivalent to approximately 107 copies) in buffer was provided for the reaction vessel. Step c) Providing Isopsoralen. AMDMIP (400 μg/ml) was provided as the isopsoralen. This is a higher concentration of AMDMIP than used in the previous example.
Step d), e), f) and g). PCR reagents and polymerase were provided, mixed and cycled as described above. This time, however, isopsoralen is part of the pre-amplification mixture.
Step h) Irradiation. Irradiation was performed on the CE-III device for 15 minutes at 25° C.
Step i) Carrying over of PCR product. Aliquots of PCR product were added into six new reaction tubes—two tubes for each dilution. Dilutions to yield 10^7, 10^5 and 10^3 copies were made. […]

E. coli polymerase I = details: nick-translating a double-stranded template; cited from earlier work
[3] = tritiated drug placed inside dialysis bag
[4] = tritiated drug placed outside dialysis bag

| SMILES | sterilization sensitivity (carryover sterilized) ([1]; 100 μg/ml) | sterilization sensitivity (carryover sterilized) ([1]; 400 μg/ml) | block of primer extension by 71-mer monoadduct (Klenow Polmerase) | Ka (DNA association constant) relative to AMDMIP (calf thymus DNA) | Ka (calf thymus DNA; [3]) | Ka (calf thymus DNA; [4]) | block of primer extension by 71-mer monoadduct (E. coli DNA Polymerase) | sterilization sensitivity (carryover sterilized) ([2]; 100 μg/ml) | sterilization sensitivity (carryover sterilized) ([2]; 400 μg/ml) | post-amplification sterilization (HIV 115-mer; CE-III 15 minutes at 25° C., 10^7, 10^5, 10^3 copies carried over) | reamplification of carryover with AMDMIP, not light-treated (HIV 115-mer) | inhibition of polymerase by covalently bound monoadducts (E. coli polymerase I) |
| --- | --- | --- | --- | --- | --- | --- | --- | --- | --- | --- | --- | --- |
| NCc1cc2occc2c2oc(=O)ccc12 [AMIP, 5-Aminomethylisopsoralen] | more effectively sterilized than the 115-mer PCR product | ≥ 6×10^9 molecules of carryover | not complete stops | 28% | 2.96 × 10^4 | 2.21 × 10^4 | not complete stops | about 10,000 molecules of carryover | about 10^6 carryover molecules |  |  |  |
| Cc1oc2ccc3c(C)cc(=O)oc3c2c1CN [AMDMIP, 4′-Aminomethyl-4,5′-dimethylisopsoralen] | ≥ 6×10^9 carryover molecules | no signal in the irradiated dilution series | complete stop |  | 7.66 × 10^4 | 1.07 × 10^5 | complete stop | better sterilization agent | ≥ 6×10^9 carryover molecules | complete, post-amplification sterilization | show amplification |  |
| Cc1cc2occc2c2oc(=O)ccc12 [MIP, 5-Methylisopsoralen] |  |  | not complete stops |  | 9.08 × 10^3 | 2.07 × 10^3 | not complete stops |  |  |  |  | not inhibited |
